Experimental data taken from patent publication US12569500B2, “Combination comprising tricycle compound and use thereof in preparation of medicament for treating HBV” (FUJIAN AKEYLINK BIOTECHNOLOGY CO., LTD., priority 2020, dated 2026).
Where two headings read alike, the source gives them in different places.

What was measured:
HBsAg = test: Single agent anti-HBV activity, HBsAg in supernatant by ELISA, HepG2.2.15 cells; format: cell-based; conditions: Hepatitis B virus, HepG2.2.15, 192 h, read-out: HBsAg EC50
Protocol: (§1) Cell line: HepG2.2.15 cells are constructed and provided by WuXi AppTec. The cell culture medium is DMEM/F12 medium supplemented with 2% fetal bovine serum, 2 mM glutamine, 1×non-essential amino acids, 100 U/mL penicillin and 100 µg/mL streptomycin.
(§2) 2.1.1 On the first day, HepG2.2.15 cells were seeded into a 96-well cell culture plate at a density of 60,000 cells/well, and then the cells were cultured overnight at 5% CO2 and 37° C. On the second day, the compound 1 and the compound of formula (IIb) and the compound of formula (IIIb) were diluted and added to a 96-well plate. Each combination was a three-fold plate. The cells were cultured under 5% CO2 and 37° C. for 3 days. On the 5th day, a new culture medium containing the compound was replaced, and the supernatant was collected on the 8th day. The HBsAg in the supernatant was detected by ELISA, and the DNA in the supernatant was extracted at the same time, and the content of HBV DNA in the supernatant was detected by quantitative PCR. After collecting the cell supernatant, add CellTiter-Glo to detect cell viability.

[1] = Single agent cytotoxicity, CellTiter-Glo; format: cell-based; conditions: human, HepG2.2.15 cells
Protocol: as §1, §2

HBV [2] = test: Single agent anti-HBV activity, HBV DNA in supernatant by quantitative PCR, HepG2.2.15 cells; format: cell-based; conditions: Hepatitis B virus, 192 h, day 8
Protocol: as §1, §2

HBV [3] = test: AAV/HBV mouse model, anti-hepatitis B virus efficacy in vivo (serum/liver HBV DNA, serum HBV RNA); parameters: species or system C57BL/6 mice
Protocol: 5-week-old male C57BL/6 mice without specific pathogen level, purchased from Shanghai Slack Laboratory Animal Co., Ltd.
Compound 1 was added with an appropriate amount of the above-mentioned solvent, and a uniform particle suspension was obtained after vortexing, and the preparation concentration was 1.0, 3.0 and 10.0 mg/mL. Store at 4° C. until used. Compound 1 is calculated according to the salt coefficient of 1.0 and the purity of 100%.
Tenofovir disoproxil (TDF) was purchased from Shanghai Panhong Chemical Technology Co., Ltd. Weigh an appropriate amount of TDF and dissolve it in physiological saline to prepare a 1 mg/mL mother liquor, vortex until TDF is fully dissolved, dispense into 1 mL size and store at −20° C. Take 1 mL of mother liquor before each administration, and dilute the working solution 10 times to 0.1 mg/mL with normal saline for the day's administration.
rAAV8-1.3HBV (Type D, ayw) was purchased from Beijing Wujiahe Institute of Molecular Medicine, batch number x2018032301, 1×10^12 viral genome (v.g.)/mL. Dilute with sterile PBS to 5×10^11 v.g./mL before the experiment. Each mouse was injected with 200 μL, that is, each mouse was injected with 1×10^11 v.g.
AAV/HBV injection: rAAV8-1.3HBV is pre-prepared with sterile PBS to a concentration of 1×10^11 v.g./200 μL solution before injection.
Infection level detection: On days 14 and 21 after virus injection, about 120 μL of blood was collected from the submandibular vein for all infected mice to collect serum. After the whole blood was incubated in a 37° C. incubator for 30 minutes, the blood was centrifuged at 13,200×g for 3 minutes at 4° C. to collect about 30 μL of serum. The serum is stored at −80° C. for the detection of HBV DNA, HBeAg and HBsAg.
Grouping: On the 28th day after virus injection, according to the levels of HBV DNA, HBsAg and HBeAg in serum samples on the 14th and 21st days after virus injection, and the body weight of the mice.
Definition of experimental days: the day of the first dosing is set to day 0 of the experiment.
Serum sample preparation: After the blood sample was incubated at 37° C. for about 30 minutes, centrifuged at 4° C., 13,200 g for 3 minutes, and the separated supernatant was quickly frozen in dry ice.
Blood was collected from the heart to collect serum for HBV DNA detection and detection of HBV RNA levels in groups 1 and 4.
3. Quantitative PCR detection of HBV DNA content in mouse serum and liver:
Data analysis: The data is expressed as the average value standard error of each group of samples. Unless otherwise specified, groups 1-6: n=8. Use Student's t test for statistical analysis.

[4] = Pharmacokinetic analysis of test compounds in AAV/HBV model mice; format: in vivo, C57BL/6 mice
HepG2.2.15 cells = test: Cytotoxicity of the compounds in combination, CellTiter Glo; format: cell-based
Protocol: as §1
2.2.1 On the first day, HepG2.2.15 cells were seeded into a 96-well cell culture plate at a density of 60,000 cells/well, and then the cells were cultured overnight at 5% CO2 and 37° C. On the second day, different concentrations of compounds were added to treat the cells. Compounds were diluted in gradients, 7×7 concentration combinations, and 3 replicate plates were tested in parallel. The compound concentration tested for joint activity is based on the EC50 value of each compound. The 7 concentration gradients are approximately: 2×, 1×, ½×, ¼×, ⅛×, 1/16× and 1/32×EC50. The compound concentration of the combined activity test experiment is shown in Table 8, and the combination drug arrangement is shown in Table 9. On the 5th day, replace the fresh culture medium containing the compound. On the 8th day, the culture supernatant was collected, DNA was extracted, and the content of HBV DNA was detected by quantitative PCR. At the same time, CellTiter Glo reagent was used to detect cell viability and MacSynergy software was used to analyze the combined effect of the two drugs.

[5] = 100 mpk BID, after 28 days of dosage, vs solvent group
[6] = 10 mg/kg, BID, AAV/HBV model mice, day 27
[7] = C57BL/6, mouse, serum, po, 10 mg/kg, BID, AAV/HBV model mice, day 27

Cc1cc2n(c1)S(=O)(=O)c1ccc(C(=O)NCC[C@H]3COCCO3)cc1NC2=O [Compound 1]
EC50 (HBsAg): > 1000 nM | CC50 at 6 days [1]: > 1000 nM | EC50 (HBV [2]): 6.03 nM | serum HBV DNA content (HBV [3]; 10 mpk BID (Group 2), after 7 days of dosage): remained stable after 7 days of dosage | HBV DNA content in the liver (HBV [3]; 10 mpk BID, after 28 days of dosage, vs solvent group): decreased | serum HBV DNA content (HBV [3]; 30 mpk BID, after 7 days of dosage): remained stable after 7 days of dosage | HBV DNA content in the liver (HBV [3]; 30 mpk BID, after 28 days of dosage, vs solvent group): decreased | serum HBV DNA content (HBV [3]; 100 mpk BID, 7-28 days after dosage, vs solvent group, p<0.01): significantly lower than that in the solvent group | HBV DNA content in the liver (HBV [3]; [5]): decreased | HBV RNA content in the serum (HBV [3]; [5]): decreased | mouse serum and liver HBV DNA (HBV [3]; compared with the solvent control group): significantly reduced | serum HBV DNA content, trend over doses (HBV [3]; low (10 mpk), medium (30 mpk), high (100 mpk) dose groups BID vs solvent group, after 3 days of dosage): dose-dependent trend | AUC0-inf/AUC0-last [4, 6]: 101% | Tlast [4, 6]: 24.0 h | T 1/2 calculation time range ([4]; 10 mg/kg, BID, AAV/HBV model mice, day 27, in h): 9-24 | AUC(0-t) ([4]; C57BL/6, mouse, serum, po, 10 mg/kg, BID, AAV/HBV model mice, day 27, read-out: AUC0-8): 26 µM·h | AUC(0-t) ([4]; C57BL/6, mouse, serum, po, 10 mg/kg, BID, AAV/HBV model mice, day 27, read-out: AUC0-last): 47.3 µM·h | AUC(0-inf) [4, 7]: 47.6 µM·h | Cmax [4, 7]: 12200 nM | Tmax [4, 7]: 1 h | half-life [4, 7]: 2.23 h | MRT inf ([4]; C57BL/6, mouse, serum, po, 10 mg/kg, BID, AAV/HBV model mice, day 27, read-out: MRT0-inf): 6.36 h | MRT last ([4]; C57BL/6, mouse, serum, po, 10 mg/kg, BID, AAV/HBV model mice, day 27, read-out: MRT0-last): 6.27 h | concentration at 0 h ([4]; C57BL/6, mouse, serum, group 2, 10 mg/kg BID oral, day 27, 0 hours (before dosage), read-out: average drug concentration in the mouse serum): 78 nM | concentration at 4 h ([4]; C57BL/6, mouse, serum, group 2, 10 mg/kg BID oral, day 27, 4 hours after the first dosage, read-out: average drug concentration in the mouse serum): 1630 nM | concentration at 8 h ([4]; C57BL/6, mouse, serum, group 2, 10 mg/kg BID oral, day 27, 8 hours after the first dosage, read-out: average drug concentration in the mouse serum): 605 nM | concentration at 9 h ([4]; C57BL/6, mouse, serum, group 2, 10 mg/kg BID oral, day 27, 9 hours after the first dosage, read-out: average drug concentration in the mouse serum): 10300 nM | concentration at 12 h ([4]; C57BL/6, mouse, serum, group 2, 10 mg/kg BID oral, day 27, 12 hours after the first dosage, read-out: average drug concentration in the mouse serum): 1280 nM | concentration at 24 h ([4]; C57BL/6, mouse, serum, group 2, 10 mg/kg BID oral, day 27, 24 hours after the first dosage, read-out: average drug concentration in the mouse serum): 66 nM | average cell viability percentage (HepG2.2.15 cells; Compound 1 0.1875 nM + formula (IIIb) 0 nM): 110.07% | average cell viability percentage (HepG2.2.15 cells; Compound 1 0.1875 nM + formula (IIb) 0 nM): 109.29% | average cell viability percentage (HepG2.2.15 cells; Compound 1 0.375 nM + formula (IIIb) 0 nM): 112.42% | average cell viability percentage (HepG2.2.15 cells; Compound 1 0.375 nM + formula (IIb) 0 nM): 109.88% | average cell viability percentage (HepG2.2.15 cells; Compound 1 0.75 nM + formula (IIIb) 0 nM): 111.36% | average cell viability percentage (HepG2.2.15 cells; Compound 1 0.75 nM + formula (IIb) 0 nM): 106.91% | average cell viability percentage (HepG2.2.15 cells; Compound 1 1.5 nM + formula (IIIb) 0 nM): 111.96% | average cell viability percentage (HepG2.2.15 cells; Compound 1 1.5 nM + formula (IIb) 0 nM): 105.37% | average cell viability percentage (HepG2.2.15 cells; Compound 1 3 nM + formula (IIIb) 0 nM): 112.58% | average cell viability percentage (HepG2.2.15 cells; Compound 1 3 nM + formula (IIb) 0 nM): 104.39% | average cell viability percentage (HepG2.2.15 cells; Compound 1 6 nM + formula (IIIb) 0 nM): 112.45% | average cell viability percentage (HepG2.2.15 cells; Compound 1 6 nM + formula (IIb) 0 nM): 103.50% | average cell viability percentage (HepG2.2.15 cells; Compound 1 12 nM + formula (IIIb) 0 nM): 111.17% | average cell viability percentage (HepG2.2.15 cells; Compound 1 12 nM + formula (IIb) 0 nM): 102.08%
